PubChem BioAssay (NCI)
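Dose response: 5 concentrations. Exposure: 48 h. Format: 96-well plates. Endpoint: linear interpolation; highest concentration if not reached. TGI marks complete inhibition of growth.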

Key:
Assay in all cases: NCI tumour cell line growth inhibition, 48 h
[1] = tested on: U251 CNS
[2] = tested on: XF 498 CNS
[3] = tested on: SNB-19 CNS
[4] = tested on: SK-OV-3 ovarian
[5] = tested on: SK-MEL-2 melanoma
[6] = tested on: CCRF-CEM leukemia
[7] = tested on: LOX IMVI melanoma
[8] = tested on: KM12 colon
[9] = tested on: HCC-2998 colon
[10] = tested on: DMS 273 small cell lung
[11] = tested on: EKVX NSCLC
[12] = tested on: HOP-92 NSCLC
[13] = tested on: SNB-78 CNS
[14] = tested on: A498 renal
[15] = tested on: OVCAR-8 ovarian
[16] = tested on: TK-10 renal
[17] = tested on: RXF 393 renal
[18] = tested on: SNB-75 CNS
[19] = tested on: M14 melanoma
[20] = tested on: ACHN renal
[21] = tested on: RPMI-8226 leukemia
[22] = tested on: SF-539 CNS
[23] = tested on: NCI-H460 lung
[24] = tested on: DMS 114 small cell lung
[25] = tested on: SF-268 CNS
[26] = tested on: MALME-3M melanoma
[27] = tested on: UACC-257 melanoma
[28] = tested on: HT29 colon
[29] = tested on: HOP-62 NSCLC
[30] = tested on: SW-620 colon
[31] = tested on: RXF-631 renal
[32] = tested on: UO-31 renal
[33] = tested on: K-562 leukemia
[34] = tested on: NCI-H522 lung
[35] = tested on: A549 NSCLC
[36] = tested on: MOLT-4 leukemia
[37] = tested on: COLO 205 colon
[38] = tested on: OVCAR-3 ovarian
[39] = tested on: IGROV1 ovarian
[40] = tested on: NCI-H23 lung
[41] = tested on: HOP-18 NSCLC
[42] = tested on: UACC-62 melanoma
[43] = tested on: SN12C renal
[44] = tested on: HCT-15 colon
[45] = tested on: HL-60(TB) leukemia
[46] = tested on: SF-295 CNS
[47] = tested on: NCI-H226 lung
[48] = tested on: M19-MEL melanoma
[49] = tested on: SK-MEL-28 melanoma
[50] = tested on: 786-0 renal
[51] = tested on: HCT-116 colon
[52] = tested on: SK-MEL-5 melanoma
[53] = tested on: OVCAR-4 ovarian
[54] = tested on: KM20L2 colon
[55] = tested on: CAKI-1 renal
[56] = tested on: LXFL 529 NSCLC
[57] = tested on: DLD-1 colon
[58] = tested on: OVCAR-5 ovarian
[59] = tested on: SR leukemia

C=C(C)CCN[Si](c1ccccc1)(c1ccccc1)C(C)(C)C
TGI [1]: 30 µM
TGI [2]: 40.9 µM
TGI [3]: 49.2 µM
TGI [4]: 69 µM
TGI [5]: 29.2 µM
TGI [6]: 66.4 µM
TGI [7]: 31.7 µM
TGI [8]: 36.3 µM
TGI [9]: 43.3 µM
TGI [10]: 37.6 µM
TGI [11]: 54.4 µM
TGI [12]: 34.2 µM
TGI [13]: 79 µM
TGI [14]: > 100 µM
TGI [15]: 36 µM
TGI [16]: 68.3 µM
TGI [17]: 32.4 µM
TGI [18]: 82.2 µM
TGI [19]: 34.4 µM
TGI [20]: > 100 µM
TGI [21]: 62.2 µM
TGI [22]: 29.1 µM
TGI [23]: > 100 µM
TGI [24]: 51.3 µM
TGI [25]: 98 µM
TGI [26]: 36.7 µM
TGI [27]: 29.1 µM
TGI [28]: 30.2 µM
TGI [29]: 31.4 µM
TGI [30]: > 100 µM
TGI [31]: 41.5 µM
TGI [32]: 26.9 µM
TGI [33]: 63.2 µM
TGI [34]: 44.3 µM
TGI [35]: > 100 µM
TGI [36]: 52.6 µM
TGI [37]: 33.3 µM
TGI [38]: 32 µM
TGI [39]: 72 µM
TGI [40]: 45.3 µM
TGI [41]: 33.4 µM
TGI [42]: 31.9 µM
TGI [43]: 32.7 µM
TGI [44]: 48.1 µM
TGI [45]: 44.5 µM
TGI [46]: 36.4 µM
TGI [47]: 25.5 µM
TGI [48]: 38 µM
TGI [49]: 42.7 µM
TGI [50]: 33.5 µM
TGI [51]: 27.7 µM
TGI [52]: 36.9 µM
TGI [53]: 44.4 µM
TGI [54]: 35.3 µM

CC(=O)C1Cn2c(nc3ccccc32)C[Se]1 (stereo not given)
TGI [55]: 5.54 µM
TGI [1]: 3.76 µM
TGI [3]: 16 µM
TGI [4]: 34 µM
TGI [56]: 10.4 µM
TGI [6]: > 100 µM
TGI [7]: 12 µM
TGI [8]: 10.7 µM
TGI [9]: 22.9 µM
TGI [11]: 28.7 µM
TGI [12]: 4.72 µM
TGI [13]: 17.2 µM
TGI [14]: 32.7 µM
TGI [15]: 13.3 µM
TGI [16]: 13 µM
TGI [17]: 5.2 µM
TGI [18]: 8.02 µM
TGI [19]: 4.96 µM
TGI [20]: 11.4 µM
TGI [21]: 62.9 µM
TGI [22]: 4.89 µM
TGI [23]: 16.8 µM
TGI [24]: 4.54 µM
TGI [25]: 11.5 µM
TGI [26]: 5.83 µM
TGI [57]: 13 µM
TGI [27]: 5.38 µM
TGI [28]: 23.2 µM
TGI [29]: 5.39 µM
TGI [30]: 17.3 µM
TGI [31]: 7.76 µM
TGI [32]: 8.46 µM
TGI [33]: 31.7 µM
TGI [34]: 10.3 µM
TGI [35]: 36.2 µM
TGI [36]: 6.79 µM
TGI [37]: 30.1 µM
TGI [38]: 4.5 µM
TGI [58]: 10.4 µM
TGI [39]: 6.02 µM
TGI [40]: 7.29 µM
TGI [41]: 5.44 µM
TGI [42]: 3.64 µM
TGI [43]: 13.8 µM
TGI [44]: 20.5 µM
TGI [59]: 6.96 µM
TGI [45]: 5.71 µM
TGI [46]: 10.1 µM
TGI [47]: 12.5 µM
TGI [48]: 4.07 µM
TGI [49]: 8.75 µM
TGI [50]: 9.21 µM
TGI [51]: 7.7 µM
TGI [52]: 3.61 µM
TGI [53]: 11.8 µM
TGI [54]: 25.8 µM
